Target: Autotaxin (Homo sapiens (Human), UniProt Q13822)
Experiment: Autotaxin LPC Cascade Assay
Assay type: biochemical
Details: Autotaxin 5 nM, LPC 100 μM, choline oxidase/HRP/Ampliflu Red fluorescence read-out, 2% DMSO, RT; read-out: IC50 ATX Activity
Method: Autotaxin LPC Cascade Assay:
HA130 and Test Compounds:
Prepare a 1 mM stock of HA130 and a 3 mM stock of each compound in 100% DMSO. Perform a 1:3 serial dilution in DMSO (transfer 5 l of compound to 10 l of DMSO). Add 240 l of buffer to generate a top working concentration of 40 µM (HA130) and 120 µM (test compound) in 4% DMSO.
Ampliflu Red—Prepare a stock of 5 mM from 100 mM in 100% DMSO. Further dilute to a working concentration of 400 μM in buffer (8% DMSO).
Together with compound this yields a 2% DMSO final concentration.
Choline Oxidase/HRP—0.8 U/mL CO and 8 U/mL HRP.
Incubate for 10 mins at RT. Add 5 µl of LPC and incubate for 1 hr on the plate shaker. Prepare the CO/HRP and AR immediately prior to use. Add 2.5 l of CO/HRP and follow with 2.5 l AR. Note order of addition, CO/HRP mix before AR. Read fluorescence intensity (ex/em: 530/590 nm) kinetically for 30 min at RT on the Tecan M1000.

SMILES	IC50 [nM]
CC(C)[C@@H](NC(=O)c1cc(C(F)(F)F)ccc1F)C(=O)N1CCC2(CC1)C(=O)N(C)C(=O)N2c1cccc(C#N)c1 [Example 8, (R)—N-(1-(1-(3-Cyanophenyl)-3-methyl-2,4-dioxo-1,3,8-triazaspiro[4.5]decan-8-yl)-3-methyl-1-oxobutan-2-yl)-2-fluoro-5-(trifluoromethyl)benzamide]	< 500
Cc1csc(CN2C(=O)N(C)C(=O)C23CCN(C(=O)[C@H](NC(=O)c2cc(C(F)(F)F)ccc2F)C(C)C)CC3)n1 [Example 117, (R)-2-Fluoro-N-(3-methyl-1-(3-methyl-1-((4-methylthiazol-2-yl)methyl)-2,4-dioxo-1,3,8-triazaspiro[4.5]decan-8-yl)-1-oxobutan-2-yl)-5-(trifluoromethyl)benzamide]	≥ 1000
CC(C)[C@@H](NC(=O)c1cccc(C2CC2)c1)C(=O)N1CCC2(CC1)C(=O)N(C)CN2c1ccccc1 [Example 142, (R)-3-Cyclopropyl-N-(3-methyl-1-(3-methyl-4-oxo-1-phenyl-1,3,8-triazaspiro[4.5]decan-8-yl)-1-oxobutan-2-yl)benzamide]	< 500
CCc1ccc(F)c(C(=O)N[C@@H](C(=O)N2CCC3(CC2)C(=O)N(C)CN3c2ccc3oc(=O)n(C)c3c2)C(C)C)c1 [Example 203, (R)-5-Ethyl-2-fluoro-N-(3-methyl-1-(3-methyl-1-(3-methyl-2-oxo-2,3-dihydrobenzo[d]oxazol-5-yl)-4-oxo-1,3,8-triazaspiro[4.5]decan-8-yl)-1-oxobutan-2-yl)benzamide]	< 500
CC(C)[C@@H](NC(=O)c1cc(C2CC2)ccc1F)C(=O)N1CCC2(CC1)C(=O)N(C)C(=O)N2c1ccc(C(=O)O)cc1 [Example 222, (R)-4-(8-(2-(5-Cyclopropyl-2-fluorobenzamido)-3-methylbutanoyl)-3-methyl-2,4-dioxo-1,3,8-triazaspiro[4.5]decan-1-yl)benzoic Acid]	< 500
CCc1ccc(F)c(C(=O)N[C@@H](C(=O)N2CCC3(CC2)C(=O)N(C)CN3c2ccccc2)C(C)C)c1 [Example 144, (R)-5-Ethyl-2-fluoro-N-(3-methyl-1-(3-methyl-4-oxo-1-phenyl-1,3,8-triazaspiro[4.5]decan-8-yl)-1-oxobutan-2-yl)benzamide]	< 500
CC(C)[C@@H](NC(=O)c1cc(C(F)(F)F)ccc1F)C(=O)N1CCC2(CC1)C(=O)N(C)C(=O)N2C1CCOCC1 [Example 77, (R)-2-Fluoro-N-(3-methyl-1-(3-methyl-2,4-dioxo-1-(tetrahydro-2H-pyran-4-yl)-1,3,8-triazaspiro[4.5]decan-8-yl)-1-oxobutan-2-yl)-5-(trifluoromethyl)benzamide]	500 to 1000
Cc1cc(F)cc(C(=O)N[C@@H](C(=O)N2CCC3(CC2)C(=O)N(C)CN3c2ccccc2)C(C)C)c1 [Example 140, (R)-3-Fluoro-5-methyl-N-(3-methyl-1-(3-methyl-4-oxo-1-phenyl-1,3,8-triazaspiro[4.5]decan-8-yl)-1-oxobutan-2-yl)benzamide]	< 500
CC(C)[C@@H](NC(=O)c1cc(C(F)(F)F)ccc1F)C(=O)N1CCC2(CC1)C(=O)N(C)C(=O)N2c1ccc(NC(=O)C2CC2)cc1 [Example 128, (R)—N-(1-(1-(4-(Cyclopropanecarboxamido)phenyl)-3-methyl-2,4-dioxo-1,3,8-triazaspiro[4.5]decan-8-yl)-3-methyl-1-oxobutan-2-yl)-2-fluoro-5-(trifluoromethyl)benzamide]	500 to 1000
Cc1cc(C(=O)N[C@@H](C(=O)N2CCC3(CC2)C(=O)N(C)CN3c2ccccc2)C(C)C)ccn1 [Example 137, (R)-2-Methyl-N-(3-methyl-1-(3-methyl-4-oxo-1-phenyl-1,3,8-triazaspiro[4.5]decan-8-yl)-1-oxobutan-2-yl)isonicotinamide]	≥ 1000
CN1C(=O)N(Cc2ccc3nccnc3c2)C2(CCN(C(=O)[C@H](NC(=O)c3cc(C(F)(F)F)ccc3F)C3CCCC3)CC2)C1=O [Example 112, (R)—N-(1-Cyclopentyl-2-(3-methyl-2,4-dioxo-1-(quinoxalin-6-ylmethyl)-1,3,8-triazaspiro[4.5]decan-8-yl)-2-oxoethyl)-2-fluoro-5-(trifluoromethyl)benzamide]	< 500
COc1ccc(N2C(=O)N(C)C(=O)C23CCN(C(=O)[C@H](NC(=O)c2cc(C(F)(F)F)ccc2F)C(C)C)CC3)cc1 [Example 51, (R)-2-Fluoro-N-(1-(1-(4-methoxyphenyl)-3-methyl-2,4-dioxo-1,3,8-triazaspiro[4.5]decan-8-yl)-3-methyl-1-oxobutan-2-yl)-5-(trifluoromethyl)benzamide]	< 500
CC(C)[C@@H](NC(=O)c1ccccn1)C(=O)N1CCC2(CC1)C(=O)N(C)C(=O)N2c1ccc2[nH]ncc2c1 [Example 228, (R)—N-(1-(1-(1H-Indazol-5-yl)-3-methyl-2,4-dioxo-1,3,8-triazaspiro[4.5]decan-8-yl)-3-methyl-1-oxobutan-2-yl)picolinamide]	≥ 1000
COc1cccc(N2C(=O)N(C)C(=O)C23CCN(C(=O)[C@H](NC(=O)c2cc(C(F)(F)F)ccc2F)C(C)C)CC3)c1 [Example 10, (R)-2-Fluoro-N-(1-(1-(3-methoxyphenyl)-3-methyl-2,4-dioxo-1,3,8-triazaspiro[4.5]decan-8-yl)-3-methyl-1-oxobutan-2-yl)-5-(trifluoromethyl)benzamide]	< 500
CC(C)[C@@H](NC(=O)c1cc(C(F)(F)F)ccc1F)C(=O)N1CCC2(CC1)C(=O)N(C)C(=O)N2c1ccc(C#N)cc1 [Example 7, (R)—N-(1-(1-(4-Cyanophenyl)-3-methyl-2,4-dioxo-1,3,8-triazaspiro[4.5]decan-8-yl)-3-methyl-1-oxobutan-2-yl)-2-fluoro-5-(trifluoromethyl)benzamide]	< 500
Cc1cc(N2CN(C)C(=O)C23CCN(C(=O)[C@H](NC(=O)c2cc(C(F)(F)F)ccc2F)C(C)C)CC3)ccc1C(=O)O [Example 158, (R)-4-(8-(2-(2-Fluoro-5-(trifluoromethyl)benzamido)-3-methylbutanoyl)-3-methy-4-oxo-1,3,8-triazaspiro[4.5]decan-1-yl)-2-methylbenzoic Acid]	≥ 1000
CCc1ccc(F)c(C(=O)N[C@@H](C(=O)N2CCC3(CC2)C(=O)N(C)CN3c2ccc(=O)n(C)c2)C(C)C)c1 [Example 201, (R)-5-Ethyl-2-fluoro-N-(3-methyl-1-(3-methyl-1-(1-methyl-6-oxo-1,6-dihydropyridin-3-yl)-4-oxo-1,3,8-triazaspiro[4.5]decan-8-yl)-1-oxobutan-2-yl)benzamide]	< 500
CC(C)[C@@H](NC(=O)c1cc(C(F)(F)F)ccc1F)C(=O)N1CCC2(CC1)C(=O)N(C)C(=O)N2c1ccc2[nH]ccc2c1 [Example 185, (R)—N-(1-(1-(1H-Indol-5-yl)-3-methyl-2,4-dioxo-1,3,8-triazaspiro[4.5]decan-8-yl)-3-methyl-1-oxobutan-2-yl)-2-fluoro-5-(trifluoromethyl)benzamide]	< 500
CC(C)[C@@H](NC(=O)c1cc(C(F)(F)F)ccc1F)C(=O)N1CCC2(CC1)C(=O)N(C)C(=O)N2c1ccc(NC2COC2)cc1 [Example 87, (R)-2-Fluoro-N-(3-methyl-1-(3-methyl-1-(4-(oxetan-3-ylamino)phenyl)-2,4-dioxo-1,3,8-triazaspiro[4.5]decan-8-yl)-1-oxobutan-2-yl)-5-(trifluoromethyl)benzamide]	≥ 1000
CC(C)[C@@H](NC(=O)c1cc(C(F)(F)F)ccc1F)C(=O)N1CCC2(CC1)C(=O)N(C)C(=O)N2Cc1ccnc(C#N)c1 [Example 113]	≥ 1000
Cc1cccc(C(=O)N[C@@H](C(=O)N2CCC3(CC2)C(=O)N(C)CN3c2ccc(Br)cc2)C(C)C)c1 [Example 199, (R)—N-(1-(1-(4-Bromophenyl)-3-methyl-4-oxo-1,3,8-triazaspiro[4.5]decan-8-yl)-3-methyl-1-oxobutan-2-yl)-3-methylbenzamide]	< 500
COC1CC(CN2C(=O)N(C)C(=O)C23CCN(C(=O)[C@H](NC(=O)c2cc(C(F)(F)F)ccc2F)C(C)C)CC3)C1 (stereo partly drawn) [Example 219, (R)-2-Fluoro-N-(1-(1-((3-methoxycyclobutyl)methyl)-3-methyl-2,4-dioxo-1,3,8-triazaspiro[4.5]decan-8-yl)-3-methyl-1-oxobutan-2-yl)-5-(trifluoromethyl)benzamide]	≥ 1000
CCc1ccc(F)c(C(=O)N[C@@H](C(=O)N2CCC3(CC2)C(=O)N(CC#N)C(=O)N3c2ccc(OC)cc2)C(C)C)c1 [Example 5, (R)—N-(1-(3-(Cyanomethyl)-1-(4-methoxyphenyl)-2,4-dioxo-1,3,8-triazaspiro[4.5]decan-8-yl)-3-methyl-1-oxobutan-2-yl)-5-ethyl-2-fluorobenzamide]	< 500
CC(C)[C@@H](NC(=O)c1cc(C(F)(F)F)ccc1F)C(=O)N1CCC2(CC1)C(=O)N(C)C(=O)N2Cc1ccc2c(c1)OCCO2 [Example 96, (R)—N-(1-(1-((2,3-Dihydrobenzo[b][1,4]dioxin-6-yl)methyl)-3-methyl-2,4-dioxo-1,3,8-triazaspiro[4.5]decan-8-yl)-3-methyl-1-oxobutan-2-yl)-2-fluoro-5-(trifluoromethyl)benzamide]	< 500
CC(C)[C@@H](NC(=O)c1cc(C(F)(F)F)ccc1F)C(=O)N1CCC2(CC1)C(=O)N(C)C(=O)N2c1ccc2nn(C)cc2c1 [Example 13, (R)-2-Fluoro-N-(3-methyl-1-(3-methyl-1-(2-methyl-2H-indazol-5-yl)-2,4-dioxo-1,3,8-triazaspiro[4.5]decan-8-yl)-1-oxobutan-2-yl)-5-(trifluoromethyl)benzamide]	< 500

Reference: patent US10233182B2, “Substituted spirocyclic inhibitors of autotaxin” (X-Rx, Inc., priority 2014, dated 2019)
